How the values were obtained:
BT549 [1] = assay: high-throughput lentiviral shRNA mammosphere formation (MSFE) screen; assay type: cell-based, human; conditions: Z-score of mammosphere formation vs plate mean, one shRNA per well, 2000 cells/well, 8 biological replicates
Experimental: (§1) In previously published results, the inventors described a breast cancer stem cell signature that comprised a set of 493 statistically significant, differentially expressed genes that were present in a tumorigenic subpopulation of breast cancer cells (Creighton et al. 2009). The biological confirmation of the significance of these differentially expressed genes was conducted using a shRNA-based gene knockdown approach, correlating the selective knockdown of target genes with mammosphere formation efficacy (MSFE), an in vitro assay for self-renewal. A library of shRNAs which targets the entire human genome (Open Biosystems, Boston, Mass., USA) was used to create a sub-library of shRNAs against the 493 differentially expressed genes in the tumorigenic signature. A total of 1124 shRNAs (˜2-3 shRNA per gene), and appropriate control shRNAs that were encoded in the pGIPZ vector with a green fluorescent protein tag were selected and arrayed on 13×96-well microtiter plates.
(§2) These shRNAs were packaged into lentiviral particles using a second-generation lentiviral packaging system (Addgene, Cambridge, Mass., USA) in 293T cells plated on 96-well plates. The supernatant was then harvested for transduction and expression in a wide range of cell types. Specifically, lentiviruses were collected 3 days after transfection, frozen at −80° C. immediately, and then thawed for transducing two different breast cancer cell lines SUM159PT (American Type Culture Collection; Manassas, Va., USA) and BT549 (ATCC) with 8 biological replicates. Cells were plated in 13×96-well ultra-low attachment plates, at 2000 cells/well, with one shRNA being transduced per well using the Biomek 3000 automated workstation (Beckman Coulter; Brea, Calif. USA), in order to ensure reproducibility and accuracy.
(§3) The lentiviral transduction rate (˜80-90%) in these cell lines was evaluated by fluorescence microscopy using the GFP tag in the pGIPZ vector. MSFE was then assessed in a high throughput screening approach of all 493 genes.
(§4) For shRNA knockdown studies, the mean and the standard deviation from all measurements of each plate for each replicated experiment were estimated. The Z-score was calculated by subtracting the mean of the plate values and dividing this difference by the standard deviation. […] For tumor volume fold-change comparisons, one-way Anova was used to compare different treatment groups. This was followed by Tukey analysis for a pairwise comparison of different treatment groups. For the tumor recurrence studies, events were defined as first appearance of tumor >50 mm^3 after completion of treatment. Time to recurrence was derived by Kaplan-Meier method, with differences compared using the generalized Mann-Whitney-Wilcoxon rank-sum test.
(§5) Previously, a breast cancer stem cell signature was identified comprising 493 statistically significant differentially expressed genes (Creighton et al., 2009). The biological significance of this gene set was confirmed by conducting shRNA-based gene knockdown, and correlating the selective knockdown of target genes using mammosphere-forming efficiency (MSFE), an in vitro assay for self-renewal. As described in the previous examples, a library of shRNAs targeting the entire human genome (Open Biosystems, MA, USA) was used to create a sub-library of shRNAs against the differentially expressed genes in the tumorigenic signature. Using these genes along with appropriate control shRNAs, a total of 1124 shRNAs (˜2-3 shRNA per gene) were tagged with green fluorescent protein, and encoded in pGIPZ vector, and then arrayed on to 13×96-well plates. These shRNAs were packaged into lentiviral particles using a second-generation lentiviral packaging system (Thermo-Fischer, USA) in 293T cells plated in 96-well plates. The supernatant was then harvested for transduction and expression in a wide range of cell types. […]

SUM159 [2] = assay: as above; assay type: cell-based, human; conditions: Z-score of mammosphere formation vs plate mean, one shRNA per well, 2000 cells/well, 8 biological replicates
Experimental: as §1, §2, §3, §4, §5

SUM159 [3] = assay: as above; assay type: cell-based, human; conditions: positive control; for mammosphere forming efficiency: increasing concentration, SUM159 cells
[4] = test system: BCM-2665A human primary tumor; assay: docetaxel treatment of BCM-2665A xenograft, tumor growth and ALDF staining; assay type: in vivo, SCID/Beige mice
Experimental: SCID/Beige mice were inoculated with BCM-2665A human primary tumor tissues. After tumors reached 1 cm^3 in size, the tumor mice were treated with 20 mg/kg docetaxel. […] The residual tumor tissues were collected at the end of the experiment, treated with collagenase, and single cells were stained with Aldefluor® reagent (ALDF). Positive staining by ALDF is one of the characteristic markers for TIC. The percentage of ALDF-positive cells was higher in the docetaxel-treated tumor, than in the control samples.

BT549 [5] = assay: in vitro MSFE with nanoliposome/silicon particle packaged siRNA; assay type: cell-based, human; conditions: BT549
Experimental: “Claudin-low”-like human breast cancer cell lines (SUM159 and BT549) were plated in 24-well ultralow attachment plates with mammary epithelial growth medium (MEGM) (5,000 cells/well). Both cell lines were then treated with 1 μg/well/6 wells of silicon particles loaded with DOPC nanoliposomes/siRNA. The primary MSs were allowed to grow for 3 days. MFs were counted on Day 3 with a GelCount colony counter (Oxford Optronix, Oxford, UK). Mammosphere-Forming Efficiency (MSFE) was calculated by dividing the number of MSs by the number of seeded cells. In addition, established MSs were serially passaged by dissociation, and single cells were re-plated on fresh 24-well, ultra-low-attachment plates to form secondary mammospheres, which were counted after 3 days. One-way ANOVA and Tukey tests were performed. A p-value of less than 0.05 was considered significant.
To develop a more clinically relevant model, two of the identified candidates (MLF2 and RPL39L) were compared to Stat3 (positive control), and their siRNA sequences identified within the shRNA vector. These siRNAs were then packaged in nanoliposomes and tested for MSFE using the same protocol as above, except for the addition of packaged siRNA instead of lentiviral shRNA. (N.B. wherein shRNA requires a promoter and needs to be transcribed in order to function, siRNA functions by itself once incorporated into recipient cells).
To develop siRNA nanotherapeutics targeting TIC, studies have been conducted to confirm the essential roles of the candidate TIC genes. Exemplary siRNA oligonucleotides specific for STAT3, MFL2, and RPL39L were formulated into nanoliposomes, which were then loaded into porous silicon MSV particles. For in vitro assay, BT549 and SUM159 cells were incubated with MSV/siRNA, and primary and secondary MSFE was measured. […] For in vivo assessment, SCID/Beige mice were inoculated with SUM159 tumor, and treated with MDS/siRNA delivered by tail vein injection. Cells were then isolated from tumor mice 3 weeks later, and MSFE was measured. […] These studies indicate that 1) MDS/siRNA could successfully be delivered to tumor tissues effectively in vivo, 2) uptake of MDS/siRNA by TIC was efficient, and 3) MFL2 and RPL39L were essential genes for TIC.
The siRNA sequences of two candidate genes RPL39 and MLF2 were packaged in nanoliposomes and the effects on MSFE determined in vitro, as described above, using packaged siRNA instead of lentiviral shRNA.

MDAMB231 lung metastasis = assay: in vivo lung metastasis of luciferase-tagged MDAMB231, IVIS imaging; design: species or system SCID-beige mice; conditions: siRNA in cationic liposomes twice weekly, week six
Experimental: 3 million cells MDAMB231 cancer cells, stably transfected with luciferase, were injected in the mammary fat pad of SCID-beige mice and were randomized into 3 groups: (1) vehicle+scrambled siRNA, (2) vehicle+MLF2 siRNA, and (3) vehicle+RPL39 siRNA, and treated with siRNA packaged liposomes twice weekly for 6 weeks. The mice were injected with D-luciferin every week for 6 weeks to determine lung metastases using IVIS imaging (Perkin Elmer). The primary tumors were removed by week 5 to continue this study without increasing the primary tumor burden to 10% of body weight.
To assess the effects of RPL39 and MLF2 siRNA on lung metastasis, SCID-Beige mice were injected with luciferase-tagged MDAMB231 cells and treated with siRNA against RPL39 or MLF2 packaged in cationic liposomes, twice weekly simultaneously, and then sacrificed at week six.

## O=S1(=O)N[C@@]2(CN1CC(F)(F)F)[C@@H]1CC[C@H]2Cc2ccc(/C=C/CN3CCC(C(F)(F)F)CC3)cc2C1 [MRK-003]
BT549 [1]; listed as AA_GSI_pos1_1
  BT 549 Z-score: −0.731
BT549 [1]; listed as AA_GSI_pos1_6
  BT 549 Z-score: −0.688
BT549 [1]; listed as AA_GSI_pos1_8
  BT 549 Z-score: −0.519
BT549 [1]; listed as AA_GSI_pos1_10
  BT 549 Z-score: −0.719
BT549 [1]; listed as AA_GSI_pos1_11
  BT 549 Z-score: −0.675
BT549 [1]; listed as AA_GSI_pos2_5
  BT 549 Z-score: −0.463
BT549 [1]; listed as AA_GSI_pos2_8
  BT 549 Z-score: −0.894
BT549 [1]; listed as AA_GSI_pos2_10
  BT 549 Z-score: −0.685
BT549 [1]; listed as AA_GSI_pos2_13
  BT 549 Z-score: −0.397
SUM159 [2]; listed as AA_GSI_pos1_1
  SUM 159 Z-score: −2.026
SUM159 [2]; listed as AA_GSI_pos1_6
  SUM 159 Z-score: −1.904
SUM159 [2]; listed as AA_GSI_pos1_8
  SUM 159 Z-score: −1.850
SUM159 [2]; listed as AA_GSI_pos1_10
  SUM 159 Z-score: −1.697
SUM159 [2]; listed as AA_GSI_pos1_11
  SUM 159 Z-score: −2.078
SUM159 [2]; listed as AA_GSI_pos2_5
  SUM 159 Z-score: −1.923
SUM159 [2]; listed as AA_GSI_pos2_8
  SUM 159 Z-score: −1.971
SUM159 [2]; listed as AA_GSI_pos2_10
  SUM 159 Z-score: −2.139
SUM159 [2]; listed as AA_GSI_pos2_13
  SUM 159 Z-score: −1.857
SUM159 [3]; 10 μM concentration
  MS formation: dramatically reduced
SUM159 [3]
  mammosphere forming efficiency: dose-dependent decrease
SUM159 [3]; listed as notch inhibitor
  mammosphere forming efficiency: inhibiting MS formation

## CC(=O)O[C@@]12CO[C@@H]1C[C@H](O)[C@@]1(C)C(=O)[C@H](O)C3=C(C)[C@@H](OC(=O)[C@H](O)[C@@H](NC(=O)OC(C)(C)C)c4ccccc4)C[C@@](O)([C@@H](OC(=O)c4ccccc4)[C@H]21)C3(C)C [docetaxel]
[4]; 20 mg/kg docetaxel, next 14 days
  tumor growth: Significant inhibition
[4]; residual tumor after 20 mg/kg docetaxel, vs control samples
  percentage of ALDF-positive cells: higher

## scrambled siRNA: control siRNA; sense SEQ ID NO: 1 ATCTCGCTTGGGCGAGAGTAAG, antisense SEQ ID NO: 17 CTTACTCTCGCCCAAGCGAGAG (listed as DNA, chemistry not given here) [reference compound]
BT549 [5]; 1 μg/well silicon particles loaded with DOPC nanoliposomes/siRNA, counted Day 3
  MSFE, primary MSs: 2.4%
BT549 [5]; silicon particles loaded with DOPC nanoliposomes/siRNA, re-plated, counted after 3 days
  MSFE, secondary MSs: 1%
MDAMB231 lung metastasis
  lung metastasis (animals with metastasis / animals), IVIS imaging: 12/12
